Data taken from PMC5750218, “Protein-inspired antibiotics active against vancomycin- and daptomycin-resistant bacteria” (Nature Communications, 2018).
Converted amounts (≈) assume the structure as drawn.

Legend:
[1] = tested on: Methicillin-resistant S. aureus ATCC 43300; test: microbe, parasite or virus in culture; details: ATCC 43300, 24 h
Method in brief: (§1)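 Growth inhibition measured by broth microdilution (MHB, 37 °C, 24 h incubation). MIC defined visually as the lowest inhibitory concentration.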

[2] = tested on: Multi-drug-resistant S. pneumoniae ATCC 700677; test: microbe, parasite or virus in culture; details: ATCC 700677
Method in brief: as §1

[3] = tested on: Vancomycin-intermediate S. aureus NRS1; test: microbe, parasite or virus in culture; details: Vancomycin-intermediate NRS1
Method in brief: as §1

[4] = tested on: Vancomycin-resistant (VanA) Enterococcus faecium ATCC 51559; test: microbe, parasite or virus in culture; details: ATCC 51559
Method in brief: as §1

Cytotoxicity MTT assay [5] = format: cell-based, human; details: human
Description: Compound cytotoxicity was evaluated against HepG2 (ATCC-®HB-8065 liver hepatoceullular carcinoma) and HEK293 (ATCC®CRL-1573, embryonic kidney) human cell lines using standard (3-(4,5-dimethylthiazol-2-yl)−2,5-diphenyltetrazolium bromide (MTT) assay protocol with slight changes. In brief, HepG2 and HEK293 cells (assessed annually for mycoplasma contamination) were seeded as 1.5 × 10^4 cells per well in a clear 96-well tissue culture treated plate in a final volume of 100 μL in Dulbecco’s Modified Eagle Medium (DMEM)(GIBCO-Invitrogen #11995-073), in which 1% of FBS was added. Cells were incubated for 24 h at 37 °C, 5% CO2 to allow cells to attach to the plates. […] After the incubation, 0.4 mg mL^−1 MTT (3-(4,5-dimethylthiazol-2-yl)−2,5-diphenyltetrazolium bromide) (Invitrogen) was added to each well. The plates were then incubated for 2 h at 37 °C, 5% CO2. The media was removed, and purple formazan crystals were resuspended in 60 μL of DMSO. The absorbance was read at 570 nm using a Polarstar Omega plate reader. The data was then analysed by Prism software. Results are presented as the average percentage of control ± S.D. for each set of duplicate wells using the following equation: percent viability = (ABSTEST – ABSPOSITIVE CTRL / ABSUNTREATED –ABS POSITIVE CTRL)×100.

Cytotoxicity MTT assay [6] = format: cell-based, human; details: human; remark: listed apart in the source
Description: Compound cytotoxicity was evaluated against HepG2 (ATCC-®HB-8065 liver hepatoceullular carcinoma) and HEK293 (ATCC®CRL-1573, embryonic kidney) human cell lines using standard (3-(4,5-dimethylthiazol-2-yl)−2,5-diphenyltetrazolium bromide (MTT) assay protocol with slight changes. In brief, HepG2 and HEK293 cells (assessed annually for mycoplasma contamination) were seeded as 1.5 × 10^4 cells per well in a clear 96-well tissue culture treated plate in a final volume of 100 μL in Dulbecco’s Modified Eagle Medium (DMEM)(GIBCO-Invitrogen #11995-073), in which 1% of FBS was added. Cells were incubated for 24 h at 37 °C, 5% CO2 to allow cells to attach to the plates. Compounds prepared at 100 µM to 0.046 µM in threefold dilutions were added into each well and incubated for 24 h at 37 °C, 5% CO2. After the incubation, 0.4 mg mL^−1 MTT (3-(4,5-dimethylthiazol-2-yl)−2,5-diphenyltetrazolium bromide) (Invitrogen) was added to each well. The plates were then incubated for 2 h at 37 °C, 5% CO2. The media was removed, and purple formazan crystals were resuspended in 60 μL of DMSO. The absorbance was read at 570 nm using a Polarstar Omega plate reader. The data was then analysed by Prism software. Results are presented as the average percentage of control ± S.D. for each set of duplicate wells using the following equation: percent viability = (ABSTEST – ABSPOSITIVE CTRL / ABSUNTREATED –ABS POSITIVE CTRL)×100.

[7] = tested on: Vancomycin-resistant S. aureus NARSA VRS4; test: microbe, parasite or virus in culture; format: cell-based, Staphylococcus aureus; details: Vancomycin-resistant NARSA VRS4

MIC MRSA [1] | MIC MDR S.P. [2] | MIC VISA [3] | MIC VRE [4] | MIC VRSA [7] | SMILES | CC50 at 24 h (Cytotoxicity MTT assay [5]) | CC50 at 24 h (Cytotoxicity MTT assay [6])
2.5 µg/mL (≈ 0.725 µM) | 3 µg/mL (≈ 0.87 µM) | >8 µg/mL | 1.25 µg/mL (≈ 0.362 µM) | – | CCCCCCCCCC(=O)NCC(=O)N[C@@H](CO)C(=O)N[C@@H](CO)C(=O)N[C@@H](CCCCN)C(=O)N[C@@H](CO)C(=O)N1CCC[C@H]1C(=O)N[C@@H](CO)C(=O)N[C@@H](CCCCN)C(=O)N[C@@H](CCCCN)C(=O)N[C@@H](CCCCN)C(=O)N[C@@H](CCCCN)C(=O)N[C@@H](CCCCN)C(=O)N[C@@H](CCCCN)C(=O)N1CCC[C@H]1C(=O)NCC(=O)N[C@@H](CC(=O)O)C(=O)N[C@@H](CSSCCNC(=O)[C@H]1NC(=O)[C@H]2NC(=O)[C@H](NC(=O)[C@@H]3NC(=O)[C@H](CC(N)=O)NC(=O)[C@H](NC(=O)[C@@H](CC(C)C)NC)[C@H](O)c4ccc(c(Cl)c4)Oc4cc3cc(c4O[C@@H]3O[C@H](CO)[C@@H](O)[C@H](O)[C@H]3O[C@H]3C[C@](C)(N)[C@H](O)[C@H](C)O3)Oc3ccc(cc3Cl)[C@H]2O)c2ccc(O)c(c2)-c2c(O)cc(O)cc21)C(N)=O [Compound 6] | > 100 µM | > 100 µM
0.09 µg/mL (≈ 0.0259 µM) | 0.06 µg/mL (≈ 0.0173 µM) | 1 µg/mL (≈ 0.288 µM) | 0.02 µg/mL (≈ 0.00575 µM) | – | CCCCCCCCCCCC(=O)NCC(=O)N[C@@H](CO)C(=O)N[C@@H](CO)C(=O)N[C@@H](CCCCN)C(=O)N[C@@H](CO)C(=O)N1CCC[C@H]1C(=O)N[C@@H](CO)C(=O)N[C@@H](CCCCN)C(=O)N[C@@H](CCCCN)C(=O)N[C@@H](CCCCN)C(=O)N[C@@H](CCCCN)C(=O)N[C@@H](CCCCN)C(=O)N[C@@H](CCCCN)C(=O)N1CCC[C@H]1C(=O)NCC(=O)N[C@@H](CC(=O)O)C(=O)N[C@@H](CSSCCNC(=O)[C@H]1NC(=O)[C@H]2NC(=O)[C@H](NC(=O)[C@@H]3NC(=O)[C@H](CC(N)=O)NC(=O)[C@H](NC(=O)[C@@H](CC(C)C)NC)[C@H](O)c4ccc(c(Cl)c4)Oc4cc3cc(c4O[C@@H]3O[C@H](CO)[C@@H](O)[C@H](O)[C@H]3O[C@H]3C[C@](C)(N)[C@H](O)[C@H](C)O3)Oc3ccc(cc3Cl)[C@H]2O)c2ccc(O)c(c2)-c2c(O)cc(O)cc21)C(N)=O [Compound 7] | 65 µM | 89 µM
0.09 µg/mL (≈ 0.0305 µM) | 0.06 µg/mL (≈ 0.0203 µM) | 0.5 µg/mL (≈ 0.17 µM) | 0.007 µg/mL (≈ 0.00237 µM) | – | CCCCCCCCCCCCCC(=O)NCC(=O)N[C@@H](CO)C(=O)N[C@@H](CO)C(=O)N[C@@H](CCCCN)C(=O)N[C@@H](CO)C(=O)N1CCC[C@H]1C(=O)N[C@@H](CO)C(=O)N[C@@H](CCCCN)C(=O)N[C@@H](CCCCN)C(=O)N[C@@H](CCCCN)C(=O)N1CCC[C@H]1C(=O)N[C@@H](CSSCCNC(=O)[C@H]1NC(=O)[C@H]2NC(=O)[C@H](NC(=O)[C@@H]3NC(=O)[C@H](CC(N)=O)NC(=O)[C@H](NC(=O)[C@@H](CC(C)C)NC)[C@H](O)c4ccc(c(Cl)c4)Oc4cc3cc(c4O[C@@H]3O[C@H](CO)[C@@H](O)[C@H](O)[C@H]3O[C@H]3C[C@](C)(N)[C@H](O)[C@H](C)O3)Oc3ccc(cc3Cl)[C@H]2O)c2ccc(O)c(c2)-c2c(O)cc(O)cc21)C(N)=O [Compound 12] | 26 µM | 41 µM
0.16 µg/mL (≈ 0.0513 µM) | 0.09 µg/mL (≈ 0.0288 µM) | 0.5 µg/mL (≈ 0.16 µM) | 0.125 µg/mL (≈ 0.04 µM) | – | CCCCCCCCCCCCCC(=O)NCC(=O)N[C@@H](CO)C(=O)N[C@@H](CO)C(=O)N[C@@H](CCCCN)C(=O)N[C@@H](CO)C(=O)N1CCC[C@H]1C(=O)N[C@@H](CO)C(=O)N[C@@H](CCCCN)C(=O)N[C@@H](CCCCN)C(=O)N[C@@H](CCCCN)C(=O)N1CCC[C@H]1C(=O)NCC(=O)N[C@@H](CC(=O)O)C(=O)N[C@@H](CSSCCNC(=O)[C@H]1NC(=O)[C@H]2NC(=O)[C@H](NC(=O)[C@@H]3NC(=O)[C@H](CC(N)=O)NC(=O)[C@H](NC(=O)[C@@H](CC(C)C)NC)[C@H](O)c4ccc(c(Cl)c4)Oc4cc3cc(c4O[C@@H]3O[C@H](CO)[C@@H](O)[C@H](O)[C@H]3O[C@H]3C[C@](C)(N)[C@H](O)[C@H](C)O3)Oc3ccc(cc3Cl)[C@H]2O)c2ccc(O)c(c2)-c2c(O)cc(O)cc21)C(N)=O [Compound 11] | 9 µM | 18 µM

Continued, molecule first:

SMILES | MIC MRSA [1] | MIC MDR S.P. [2] | MIC VISA [3] | MIC VRE [4] | MIC VRSA [7] | CC50 at 24 h (Cytotoxicity MTT assay [5]) | CC50 at 24 h (Cytotoxicity MTT assay [6])
CCCCCCCCCCCCCC(=O)NCC(=O)N[C@@H](CO)C(=O)N[C@@H](CCCCN)C(=O)N[C@@H](CCCCN)C(=O)N[C@@H](CCCCN)C(=O)N[C@@H](CCCCNC(=O)[C@H]1NC(=O)[C@H]2NC(=O)[C@H](NC(=O)[C@@H]3NC(=O)[C@H](CC(N)=O)NC(=O)[C@H](NC(=O)[C@@H](CC(C)C)NC)[C@H](O)c4ccc(c(Cl)c4)Oc4cc3cc(c4O[C@@H]3O[C@H](CO)[C@@H](O)[C@H](O)[C@H]3O[C@H]3C[C@](C)(N)[C@H](O)[C@H](C)O3)Oc3ccc(cc3Cl)[C@H]2O)c2ccc(O)c(c2)-c2c(O)cc(O)cc21)C(=O)O [Compound 16, nC13CO-GSKKK-K(Vancomycin)-OH] | 0.06 µg/mL (≈ 0.0259 µM) | <0.003 µg/mL | 0.007 µg/mL (≈ 0.00302 µM) | – | – | 18 µM | 53 µM
CCCCCCCCCCCC(=O)N[C@@H](CCCCN)C(=O)N[C@@H](CCCCN)C(=O)N[C@@H](CCCCN)C(=O)N[C@@H](CCCCNC(=O)[C@H]1NC(=O)[C@H]2NC(=O)[C@H](NC(=O)[C@@H]3NC(=O)[C@H](CC(N)=O)NC(=O)[C@H](NC(=O)[C@@H](CC(C)C)NC)[C@H](O)c4ccc(c(Cl)c4)Oc4cc3cc(c4O[C@@H]3O[C@H](CO)[C@@H](O)[C@H](O)[C@H]3O[C@H]3C[C@](C)(N)[C@H](O)[C@H](C)O3)Oc3ccc(cc3Cl)[C@H]2O)c2ccc(O)c(c2)-c2c(O)cc(O)cc21)C(=O)O [Compound 37, nC11CO-KKK-K(Vancomycin)-OH] | 0.005 µg/mL (≈ 0.00233 µM) | <0.003 µg/mL | 0.06 µg/mL (≈ 0.028 µM) | 0.5 µg/mL (≈ 0.233 µM) | 0.75 µg/mL (≈ 0.35 µM) | – | –
CCCCCCCCCCCCCCCC(=O)NCC(=O)N[C@@H](CO)C(=O)N[C@@H](CO)C(=O)N[C@@H](CCCCN)C(=O)N[C@@H](CO)C(=O)N1CCC[C@H]1C(=O)N[C@@H](CO)C(=O)N[C@@H](CCCCN)C(=O)N[C@@H](CCCCN)C(=O)N[C@@H](CCCCN)C(=O)N[C@@H](CCCCN)C(=O)N[C@@H](CCCCN)C(=O)N[C@@H](CCCCN)C(=O)N1CCC[C@H]1C(=O)NCC(=O)N[C@@H](CC(=O)O)C(=O)N[C@@H](CSSCCNC(=O)[C@H]1NC(=O)[C@H]2NC(=O)[C@H](NC(=O)[C@@H]3NC(=O)[C@H](CC(N)=O)NC(=O)[C@H](NC(=O)[C@@H](CC(C)C)NC)[C@H](O)c4ccc(c(Cl)c4)Oc4cc3cc(c4O[C@@H]3O[C@H](CO)[C@@H](O)[C@H](O)[C@H]3O[C@H]3C[C@](C)(N)[C@H](O)[C@H](C)O3)Oc3ccc(cc3Cl)[C@H]2O)c2ccc(O)c(c2)-c2c(O)cc(O)cc21)C(N)=O [Compound 9] | 0.06 µg/mL (≈ 0.017 µM) | 0.125 µg/mL (≈ 0.0354 µM) | 2 µg/mL (≈ 0.566 µM) | 8 µg/mL (≈ 2.26 µM) | – | 4 µM | 7 µM
